Assay results published in patent US11572590B2, “Methods for evaluating tumor cell spheroids using 3D microfluidic cell culture device” (Dana-Farber Cancer Institute, Inc., priority 2017, dated 2023).
Read-outs that look alike come from different tables or passages of the source.

What was measured:
Test in all cases: SelectScreen Kinase Profiling, single point inhibition and IC50 for off-target kinases
Type in all cases: biochemical
off-target kinases [1] = target: off-target kinases (Homo sapiens, UniProt P11362, V561M); details: FGFR1 V561M, mutant y, LanthaScreen Binding
Protocol: (§1) Biochemical single point inhibition and IC50 concentrations for TBK1, IKKε (IKBKE), and off-target kinases were determined at ThermoFisher Scientific using SelectScreen Kinase Profiling Services (Madison, Wis., USA) (Tables S4A and S4B-1-7). To determine cellular potency, the human colorectal cancer carcinoma cell line HCT116 (ATCC, Manassas, Va.) was maintained in T175 flasks in complete RPMI medium; RPMI 1640 supplemented with 10% FBS, 1× Penicillin-Streptomycin solution and 1×MEM (non-essential amino acids). HCT116 cells were grown to 90-95% confluency in T175 flasks containing complete RPMI medium and transfected in bulk using Lipofectamine 2000 (Invitrogen, Carlsbad, Calif.) with 70 μg of ISG54-luciferase reporter plasmid (Elim Biopharmaceuticals Inc., Hayward, Calif.). The reporter plasmid contains a luciferase gene expression cassette under the transcriptional regulation of the promoter of the human interferon stimulated gene 54 (ISG54). Transfection of the cells was allowed to take place for 6 hours, after which the cells were harvested by treatment with 0.25% trypsin EDTA (Corning Inc., Corning, N.Y.). Trypsinized cells were added to 384-well poly-d-lysine treated black clear bottom tissue culture assay plates (Greiner Bio-One GmbH, Kremsmünster, Austria) at a density of 20,000 cells/well in 80 μL of complete RPMI medium and incubated overnight. After 16-18 hours post-transfection, the assay plates were washed with PBS (Corning Inc., Corning, N.Y.), followed by addition of 80 μL/well of serum-free RPMI 1640 medium containing 1× Penicillin-Streptomycin solution, 1×MEM and 350 nL of DMSO or titrations of Compound 1. Compound 1 titrations were generated by 1.5-fold dilution steps in two overlapping serial dilution series to generate a 40-point compound dose range. After incubation at 37° C. for 1 hour, the cells were stimulated with Poly(I:C) (InvivoGen, San Diego, Calif.) at a final concentration of 15 μg/mL in Optimem media (Life Technologies, Rockville, Md.). The assay plates were incubated for 5 hours at 37° C., followed by addition of One-Glo luciferase firefly reagent (Promega, Madison, Wis.) at 1:1 volume/well and luminescence was measured in an EnVision Multilabel Plate Reader (PerkinElmer, Santa Clara, Calif.). The EC50 values were calculated from the fit of the dose-response curves to a four-parameter equation. All EC50 values represent geometric mean values of a minimum of four determinations.

off-target kinases [2] = target: off-target kinases (Homo sapiens, UniProt P49759); details: CLK1, ZLYTE, ATP Km app
Protocol: as §1

off-target kinases [3] = target: T1, off-target kinases (Homo sapiens, UniProt Q13043)
T1 sequence (Q13043 1-487): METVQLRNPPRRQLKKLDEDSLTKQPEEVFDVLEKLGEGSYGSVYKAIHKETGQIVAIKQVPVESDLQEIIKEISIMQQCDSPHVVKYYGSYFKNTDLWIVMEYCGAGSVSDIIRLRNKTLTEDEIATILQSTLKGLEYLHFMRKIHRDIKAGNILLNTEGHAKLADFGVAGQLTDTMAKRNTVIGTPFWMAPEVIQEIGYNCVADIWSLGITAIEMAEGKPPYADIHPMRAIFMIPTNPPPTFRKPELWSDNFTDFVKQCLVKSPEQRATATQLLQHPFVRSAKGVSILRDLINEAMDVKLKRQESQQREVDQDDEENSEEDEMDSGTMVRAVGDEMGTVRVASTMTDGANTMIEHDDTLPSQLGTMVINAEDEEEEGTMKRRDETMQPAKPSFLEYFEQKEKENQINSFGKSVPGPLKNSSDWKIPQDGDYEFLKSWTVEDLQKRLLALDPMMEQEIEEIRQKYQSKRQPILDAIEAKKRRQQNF
Protocol: as §1

off-target kinases [4] = target: T2, off-target kinases (Homo sapiens, UniProt Q8NE63); details: HIPK4, ZLYTE, ATP Km app
T2 sequence (Q8NE63 1-616): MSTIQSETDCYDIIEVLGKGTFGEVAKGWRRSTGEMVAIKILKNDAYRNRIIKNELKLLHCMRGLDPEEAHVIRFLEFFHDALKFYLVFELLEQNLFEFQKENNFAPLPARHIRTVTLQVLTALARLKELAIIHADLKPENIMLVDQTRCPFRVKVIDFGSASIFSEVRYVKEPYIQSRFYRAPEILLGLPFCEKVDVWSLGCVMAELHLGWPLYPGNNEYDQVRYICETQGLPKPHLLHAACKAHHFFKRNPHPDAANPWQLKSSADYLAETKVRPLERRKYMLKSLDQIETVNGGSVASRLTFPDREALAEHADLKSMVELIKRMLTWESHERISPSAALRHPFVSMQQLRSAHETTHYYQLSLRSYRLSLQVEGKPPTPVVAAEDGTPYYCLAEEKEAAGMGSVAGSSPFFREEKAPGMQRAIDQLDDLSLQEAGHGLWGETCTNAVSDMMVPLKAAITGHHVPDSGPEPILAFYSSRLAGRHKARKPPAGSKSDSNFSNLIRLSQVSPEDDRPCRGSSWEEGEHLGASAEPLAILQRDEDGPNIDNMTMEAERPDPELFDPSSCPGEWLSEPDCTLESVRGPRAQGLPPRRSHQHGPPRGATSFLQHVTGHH
Protocol: as §1

off-target kinases [5] = target: off-target kinases (Homo sapiens, UniProt Q9H2G2); details: SLK, LanthaScreen Binding
Protocol: as §1

Sequence of off-target kinases (Homo sapiens, UniProt Q9H2G2) (Q9H2G2 whole entry): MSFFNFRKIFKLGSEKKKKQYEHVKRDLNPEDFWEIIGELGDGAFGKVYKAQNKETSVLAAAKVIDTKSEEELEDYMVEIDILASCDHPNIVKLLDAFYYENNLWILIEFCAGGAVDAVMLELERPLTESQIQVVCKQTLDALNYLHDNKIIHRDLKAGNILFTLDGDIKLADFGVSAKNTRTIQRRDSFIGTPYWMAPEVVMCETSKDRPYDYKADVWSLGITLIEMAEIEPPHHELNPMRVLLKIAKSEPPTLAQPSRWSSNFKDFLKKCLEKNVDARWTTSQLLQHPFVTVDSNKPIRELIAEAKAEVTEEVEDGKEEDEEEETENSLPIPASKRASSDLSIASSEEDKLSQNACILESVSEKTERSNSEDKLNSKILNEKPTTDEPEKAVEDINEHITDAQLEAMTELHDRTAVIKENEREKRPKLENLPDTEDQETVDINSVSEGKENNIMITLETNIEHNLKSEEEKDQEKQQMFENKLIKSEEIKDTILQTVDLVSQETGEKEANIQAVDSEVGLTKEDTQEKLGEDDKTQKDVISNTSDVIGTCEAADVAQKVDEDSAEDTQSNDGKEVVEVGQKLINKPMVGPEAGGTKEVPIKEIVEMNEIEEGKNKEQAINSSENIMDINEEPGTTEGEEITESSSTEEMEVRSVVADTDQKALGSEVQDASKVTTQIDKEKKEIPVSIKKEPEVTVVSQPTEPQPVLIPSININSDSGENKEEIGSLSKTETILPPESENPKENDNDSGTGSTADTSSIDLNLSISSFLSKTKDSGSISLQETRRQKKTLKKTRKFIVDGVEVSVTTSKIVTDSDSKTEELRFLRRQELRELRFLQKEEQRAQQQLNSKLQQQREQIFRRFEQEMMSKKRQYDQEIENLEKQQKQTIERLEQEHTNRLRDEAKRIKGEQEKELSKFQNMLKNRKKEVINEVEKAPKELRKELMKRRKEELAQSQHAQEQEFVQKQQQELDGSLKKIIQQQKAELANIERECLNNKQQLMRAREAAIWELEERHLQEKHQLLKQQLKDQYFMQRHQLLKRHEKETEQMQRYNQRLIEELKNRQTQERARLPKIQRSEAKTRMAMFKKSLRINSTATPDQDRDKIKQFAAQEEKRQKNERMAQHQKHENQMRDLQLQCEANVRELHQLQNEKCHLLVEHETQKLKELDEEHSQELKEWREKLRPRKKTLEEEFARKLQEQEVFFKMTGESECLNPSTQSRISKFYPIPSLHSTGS
Sequence of off-target kinases (Homo sapiens, UniProt P49759) (P49759 whole entry): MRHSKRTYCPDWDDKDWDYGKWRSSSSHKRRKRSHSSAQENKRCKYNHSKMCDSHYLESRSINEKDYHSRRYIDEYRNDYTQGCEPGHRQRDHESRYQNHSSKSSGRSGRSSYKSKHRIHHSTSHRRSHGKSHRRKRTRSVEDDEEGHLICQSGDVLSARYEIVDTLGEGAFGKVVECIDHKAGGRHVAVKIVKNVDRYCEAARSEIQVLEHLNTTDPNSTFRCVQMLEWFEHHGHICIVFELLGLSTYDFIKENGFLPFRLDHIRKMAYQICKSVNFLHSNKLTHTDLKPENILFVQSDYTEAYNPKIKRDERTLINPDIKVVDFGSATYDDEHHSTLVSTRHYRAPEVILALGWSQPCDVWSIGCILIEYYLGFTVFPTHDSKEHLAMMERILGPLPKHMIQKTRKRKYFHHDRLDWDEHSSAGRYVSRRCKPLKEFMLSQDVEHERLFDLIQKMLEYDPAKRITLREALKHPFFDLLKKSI
Sequence of off-target kinases (Homo sapiens, UniProt P11362, V561M) (P11362 22-822 V561M): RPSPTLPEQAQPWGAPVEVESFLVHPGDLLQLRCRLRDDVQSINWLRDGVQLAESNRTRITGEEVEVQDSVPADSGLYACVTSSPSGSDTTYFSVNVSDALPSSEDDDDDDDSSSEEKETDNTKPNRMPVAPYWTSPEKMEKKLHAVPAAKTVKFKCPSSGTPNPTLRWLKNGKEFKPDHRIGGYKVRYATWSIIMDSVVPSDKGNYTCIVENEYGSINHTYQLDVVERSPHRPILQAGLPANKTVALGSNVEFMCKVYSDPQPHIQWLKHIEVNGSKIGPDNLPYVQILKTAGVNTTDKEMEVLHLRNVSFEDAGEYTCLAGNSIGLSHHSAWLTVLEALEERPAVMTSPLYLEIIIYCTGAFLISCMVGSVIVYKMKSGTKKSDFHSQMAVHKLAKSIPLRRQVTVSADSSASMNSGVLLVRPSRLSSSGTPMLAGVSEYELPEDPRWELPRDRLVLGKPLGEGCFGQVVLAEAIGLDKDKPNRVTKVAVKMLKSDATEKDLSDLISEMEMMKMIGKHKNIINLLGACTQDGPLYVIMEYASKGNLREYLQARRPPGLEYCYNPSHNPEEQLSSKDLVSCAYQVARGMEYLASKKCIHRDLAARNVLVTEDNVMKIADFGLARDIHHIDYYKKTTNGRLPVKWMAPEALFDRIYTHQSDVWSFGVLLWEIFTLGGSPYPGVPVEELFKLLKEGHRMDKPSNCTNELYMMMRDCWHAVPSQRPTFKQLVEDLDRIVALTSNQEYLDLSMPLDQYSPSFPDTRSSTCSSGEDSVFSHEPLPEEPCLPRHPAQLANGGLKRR

`N#Cc1cc(-c2ncnc(Nc3ccc(N4CCN(C5COC5)CC4)cc3)n2)ccc1OC1CCOCC1` [Compound 1, 5-(4-((4-(4-(oxetan-3-yl)piperazin-1-yl)phenyl)amino)-1,3,5-triazin-2-yl)-2-((tetrahydro-2H-pyran-4-yl)oxy)benzonitrile] showed an inhibition (off-target kinases [1]; read-out: % Inhibition 1) of 20%, an inhibition (off-target kinases [1]; read-out: % Inhibition 2) of 25% and an inhibition (off-target kinases [1]; read-out: % Inhibition Avg) of 23%. It also gave an inhibition (off-target kinases [2]; read-out: % Inhibition 1) of 33%, an inhibition (off-target kinases [2]; read-out: % Inhibition 2) of 34% and an inhibition (off-target kinases [2]; read-out: % Inhibition Avg) of 33%. The inhibition (off-target kinases [3]; STK4 (MST1), ZLYTE, ATP Km app, read-out: % Inhibition Avg) was 0%, the inhibition (off-target kinases [3]; read-out: % Inhibition 1) was 0% and the inhibition (off-target kinases [3]; read-out: % Inhibition 2) was 0%. It also gave an inhibition (off-target kinases [4]; read-out: % Inhibition 1) of 18%, an inhibition (off-target kinases [4]; read-out: % Inhibition 2) of 14% and an inhibition (off-target kinases [4]; read-out: % Inhibition Avg) of 16%. It also gave an inhibition (off-target kinases [5]; read-out: % Inhibition 1) of 29%, an inhibition (off-target kinases [5]; read-out: % Inhibition 2) of 32% and an inhibition (off-target kinases [5]; read-out: % Inhibition Avg) of 30%.
